One data set deals with Recombinant mouse CD38 (Mus musculus (Mouse), UniProt P56528). As to the kind of experiment: Mouse CD38 hydrolase assay (fluorescence, ε-NAD substrate). The format is biochemical. The settings on record: recombinant mouse CD38 0.4 nM, 12 μM ε-NAD, 30 min preincubation at 25° C., pH 7.4. The protocol:
(§1) The ability of test compounds to inhibit mouse CD38 hydrolase activity was measured in a fluorescence-based assay using non-physiological NAD^+ substrate analogue 1,N^6-etheno NAD^+ (ε-NAD). Recombinant mouse CD38 (0.4 nM) was preincubated with test compounds in 384-well black microplates for 30 min at 25° C. in PBS (—Ca^2+/Mg^2+) containing 0.005% BSA (pH 7.4). CD38 hydrolase activity was initiated by addition of 12 μM ε-NAD, which yields the fluorescent product 1,N^6-etheno ADP-ribose. Formation of fluorescent product was followed using ClarioStar Plus (BMG) microplate reader by reading fluorescence (excitation λ=300 nm; emission λ=410 nm) at two time points, one immediately after substrate addition (t=0) and one at 6 min (t=6).
Data was analysed by subtracting the values detected at t=0 from t=6 to correct for variation in baseline fluorescence, and fluorescence values were converted to percent inhibition using the average of high signal (CD38 and ε-NAD) and low signal (CD38 and ε-NAD in the presence of a tool CD38 inhibitor) control wells. IC50 values were determined from a 10-point, half log concentration response curve with a four-parameter logistic equation.

A further data set has as its target Recombinant human CD38 (Homo sapiens (Human), UniProt P28907). As to the kind of experiment: Human CD38 hydrolase assay (fluorescence, ε-NAD substrate). The format is biochemical. The settings on record: recombinant human CD38 0.8 nM, 4 μM ε-NAD, 30 min preincubation at 25° C., pH 7.4. The protocol: as §1, with “inhibit human” for “inhibit mouse”, “Recombinant human” for “Recombinant mouse”, “CD38 (0.8” for “CD38 (0.4”, “of 4” for “of 12”, “at 10” for “at 6”, “min (t=10).” for “min (t=6).”
Data was analysed by subtracting the values detected at t=0 from t=10 to correct for variation in baseline fluorescence. Fluorescence values were converted to percent inhibition using the average of high signal (CD38 and ε-NAD) and low signal (CD38 and ε-NAD in the presence of a tool CD38 inhibitor) control wells. IC50 values were determined from a 10-point, half log concentration response curve with a four-parameter logistic equation.

Data set [1] in a line: PK brain permeability in C57BL/6 mice after single oral gavage. In kind it is in vivo. The settings on record: 2 hours post dose; for concentration at 2 h: po, 10 mg/kg. The protocol:
The distribution of compounds into the brain in vivo was determined in C57BL/6 mice following single oral (po) gavage administration.
Test compounds were formulated at 1 mg/mL in 0.5% HPMC E4 M, 0.2% Tween 80 in water to achieve solutions or homogenous suspensions suitable for po administration.
Formulations were administered to 3 male C57BL/6 mice at a volume of 10 mL/kg resulting in a dose level of 10 mg/kg. Blood samples were collected at 1 and 2 hours post dose into tubes containing K2EDTA as anticoagulant, processed to plasma and stored at −60° C. or lower until LC-MS/MS analysis. Brains were harvested 2 hours post dose, rinsed with saline, dried, weighed and homogenised under ice cold conditions. Brain homogenates were stored at −60° C. or lower until LC-MS/MS analysis.
Dose formulation concentrations were verified using a LC-UV or LC-MS/MS method. Test compound concentrations in plasma and brain homogenate were quantitatively determined using LC-MS/MS methods developed in individual matrices against calibration curves with QC samples included and acceptance criteria as per CRO SOPs. Concentrations in brain homogenate were corrected for the dilution factor used to prepare the homogenate to give concentrations in whole brain tissue.
Plasma and brain concentration versus time data were reported and plotted in excel. The brain to plasma ratio at 2 hours post dose was calculated for each animal using the following equation:
Brain:plasma=brain concentration (ng/g) at 2 h/plasma concentration (ng/mL) at 2 h
As only unbound test compound is available to exert an effect on the target, unbound plasma (Cp,u) and unbound brain (Cb,u) concentrations were calculated by correcting the total concentrations for the unbound fraction in plasma (fu,p) or brain (fu,b) determined from in vitro plasma protein or brain tissue binding assays using the following equations: […]
The unbound partitioning coefficient (Kpu,u) was then calculated based on the ratio of Cb,u to Cp,u using the following equation: […]
In these studies, mice were orally administrated a 10 mg/kg dose and sacrificed 2 hours post dose and tissue samples (brain homogenate and plasma) were analyzed subsequently as described above.

Data on 18 compounds can be found in patent US20250019369A1, “N-(4-aminocyclohexyl)pyrimidine-4-carboxamide derivatives as CD38 inhibitors” (Cerevance, Inc., priority 2021, published 2025).

Structures are written as SMILES. Structures can show the parent of a compound that is named as a salt. Where two headings read alike, the source gives them in different places.

Sequence of Recombinant mouse CD38 (P56528 whole entry): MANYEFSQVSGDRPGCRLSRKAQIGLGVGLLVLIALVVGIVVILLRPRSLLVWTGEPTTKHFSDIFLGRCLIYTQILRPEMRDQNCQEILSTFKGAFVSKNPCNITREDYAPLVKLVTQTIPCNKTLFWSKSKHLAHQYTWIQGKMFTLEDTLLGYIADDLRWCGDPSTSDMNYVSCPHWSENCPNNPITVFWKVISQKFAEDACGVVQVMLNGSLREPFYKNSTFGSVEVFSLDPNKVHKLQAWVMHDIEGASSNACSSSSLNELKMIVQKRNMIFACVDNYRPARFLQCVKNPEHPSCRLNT
Sequence of Recombinant human CD38 (P28907 whole entry): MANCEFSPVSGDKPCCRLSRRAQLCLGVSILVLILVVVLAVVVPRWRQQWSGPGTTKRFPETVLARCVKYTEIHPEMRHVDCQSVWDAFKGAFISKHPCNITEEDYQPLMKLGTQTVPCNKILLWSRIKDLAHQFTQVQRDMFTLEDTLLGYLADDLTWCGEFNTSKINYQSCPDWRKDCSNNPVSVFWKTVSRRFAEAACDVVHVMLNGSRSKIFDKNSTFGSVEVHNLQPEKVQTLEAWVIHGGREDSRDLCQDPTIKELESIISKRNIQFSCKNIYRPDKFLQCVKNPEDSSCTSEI

For orientation: IC50 means the concentration needed to halve the response being measured. For `Cc1cc(C(=O)N[C@H]2CC[C@H](NCC(F)(F)F)CC2)nc(-c2cncn2C)n1` [Example 4, 6-methyl-2-(1-methyl-1H-imidazol-5-yl)-N-((1r,4r)-4-((2,2,2-trifluoroethyl)amino)cyclohexyl)pyrimidine-4-carboxamide], on Recombinant mouse CD38, the IC50 was at most 40 nM. In the case of `Cc1cc(C(=O)N[C@H]2CC[C@H](NCC(F)(F)F)CC2)nc(-c2cncs2)n1` [Example 5, 6-methyl-2-(thiazol-5-yl)-N-((1r,4r)-4-((2,2,2-trifluoroethyl)amino)cyclohexyl)pyrimidine-4-carboxamide], the values for the 50% inhibitory concentration (IC50) at Recombinant human CD38 and at Recombinant mouse CD38 were at most 1000 nM and at most 40 nM, respectively.

`CCc1cc(C(=O)N[C@H]2CC[C@H](NCC(F)(F)F)CC2)nc(-n2ccnc2)n1` [Example 6, 6-ethyl-2-(1H-imidazol-1-yl)-N-((1r,4r)-4-((2,2,2-trifluoroethyl)amino)cyclohexyl)pyrimidine-4-carboxamide]: the values for the IC50 at Recombinant human CD38 and at Recombinant mouse CD38 were at most 100 nM and at most 40 nM, respectively.

For `Cc1cc(C(=O)N[C@H]2CC[C@H](N(C)CC(F)(F)F)CC2)nc(-n2ccnc2)n1` [Example 7, 2-(1H-imidazol-1-yl)-6-methyl-N-((1r,4r)-4-(methyl(2,2,2-trifluoroethyl)amino)cyclohexyl)pyrimidine-4-carboxamide], the IC50 on Recombinant human CD38 is at most 100 nM. The same measure, in the same setting: with `Cc1cc(C(=O)N[C@H]2CC[C@H](NCC(F)F)CC2)nc(-c2cncs2)n1` [Example 8, N-((1r,4r)-4-((2,2-difluoroethyl)amino)cyclohexyl)-6-methyl-2-(thiazol-5-yl)pyrimidine-4-carboxamide] the figure was at most 1000 nM. As to `Cc1cc(C(=O)N[C@H]2CC[C@H](NCCF)CC2)nc(-n2ccnc2)n1` [Example 9, N-((1r,4r)-4-((2-fluoroethyl)amino)cyclohexyl)-2-(1H-imidazol-1-yl)-6-methyl-pyrimidine-4-carboxamide formate], the IC50 at Recombinant human CD38 was at most 1000 nM; at Recombinant mouse CD38, at most 40 nM. Take `Cc1cc(C(=O)N[C@H]2CC[C@@H](N3CCC(F)(F)C3)CC2)nc(-n2ccnc2)n1` [Example 11, N-((1s,4s)-4-(3,3-difluoropyrrolidin-1-yl)cyclohexyl)-2-(1H-imidazol-1-yl)-6-methyl-pyrimidine-4-carboxamide]: the IC50 on Recombinant human CD38 is at most 10000 nM.

On to `Cc1cc(C(=O)N[C@H]2CC[C@H](N3CC[C@H](F)C3)CC2)nc(-n2ccnc2)n1` [Example 12, N-((1s,4r)-4-((S)-3-fluoropyrrolidin-1-yl)cyclohexyl)-2-(1H-imidazol-1-yl)-6-methyl-pyrimidine-4-carboxamide], for which the IC50 was at most 100 nM at Recombinant human CD38 and at most 40 nM at Recombinant mouse CD38. For `Cc1cc(C(=O)N[C@H]2CC[C@H](N3CC[C@@H](F)C3)CC2)nc(-n2ccnc2)n1` [Example 13, N-((1r,4r)-4-((R)-3-fluoropyrrolidin-1-yl)cyclohexyl)-2-(1H-imidazol-1-yl)-6-methyl-pyrimidine-4-carboxamide], the half-maximal inhibitory concentration (IC50) on Recombinant human CD38 was at most 100 nM; on Recombinant mouse CD38 it was at most 40 nM. As for `Cc1cc(C(=O)N[C@H]2CC[C@H](NCC(F)(F)F)CC2)nc(-c2cn[nH]c2)n1` [Example 14, 6-methyl-2-(1H-pyrazol-4-yl)-N-((1r,4r)-4-((2,2,2-trifluoroethyl)amino)cyclohexyl)pyrimidine-4-carboxamide], at Recombinant mouse CD38, the IC50 is at most 1000 nM. `Cc1cc(C(=O)N[C@H]2CC[C@H](NCC(F)F)CC2)nc(-c2cn[nH]c2)n1` [Example 15, N-((1r,4r)-4-((2,2-difluoroethyl)amino)cyclohexyl)-6-methyl-2-(1H-pyrazol-4-yl)pyrimidine-4-carboxamide]: the IC50 on Recombinant human CD38 is at most 10000 nM; on Recombinant mouse CD38 it was at most 1000 nM. In the case of `O=C(N[C@H]1CC[C@H](NCC(F)F)CC1)c1cc(C2CC2)cc(-n2ccnc2)n1` [Example 16, 4-cyclopropyl-N-((1r,4r)-4-((2,2-difluoroethyl)amino)cyclohexyl)-6-(1H-imidazol-1-yl)picolinamide], the IC50 on Recombinant human CD38 was at most 1000 nM; at Recombinant mouse CD38 it was at most 40 nM. For the compound `CCN[C@H]1CC[C@H](NC(=O)c2cc(C)nc(-n3ccnc3)n2)CC1` [Example 19, N-((1r,4r)-4-(ethylamino)cyclohexyl)-2-(1H-imidazol-1-yl)-6-methyl-pyrimidine-4-carboxamide Formate], the IC50 at Recombinant human CD38 is at most 100 nM; at Recombinant mouse CD38, at most 40 nM.

As to `O=C(N[C@H]1CC[C@H](NCC(F)(F)F)CC1)c1cc(C2CC2)cc(-n2ccnc2)n1` [Example 20, 4-cyclopropyl-6-(1H-imidazol-1-yl)-N-((1r,4r)-4-((2,2,2-trifluoroethyl)amino)cyclohexyl)picolinamide], the IC50 on Recombinant human CD38 is at most 100 nM; at Recombinant mouse CD38 it was at most 40 nM. In the same order, the values of `Cc1cc(C(=O)N[C@H]2CC[C@H](N[C@@H](C)C(F)(F)F)CC2)nc(-n2ccnc2)n1` [Example 22, 2-(1H-imidazol-1-yl)-6-methyl-N-((1S,4r)-4-(((S)-1,1,1-trifluoropropan-2-yl)amino)cyclohexyl)pyrimidine-4-carboxamide] are at most 40 nM and at most 40 nM. In the same order, the values of `Cc1cc(C(=O)N[C@H]2CC[C@H](N[C@H](C)C(F)(F)F)CC2)nc(-n2ccnc2)n1` [Example 23, 2-(1H-imidazol-1-yl)-6-methyl-N-((1R,4r)-4-(((R)-1,1,1-trifluoropropan-2-yl)amino)cyclohexyl)pyrimidine-4-carboxamide] are at most 40 nM and at most 40 nM. For the compound `Cc1cc(C(=O)N[C@H]2CC[C@H](NCC(F)(F)F)CC2)nc(-n2cncc2C)n1` [Example 24, 6-methyl-2-(5-methyl-1H-imidazol-1-yl)-N-((1r,4r)-4-((2,2,2-trifluoroethyl)amino)cyclohexyl)pyrimidine-4-carboxamide], the IC50 is at most 100 nM at Recombinant human CD38 and at most 40 nM on Recombinant mouse CD38.

In the case of `O=C(N[C@H]1CC[C@H](NCC(F)(F)F)CC1)c1nc(-n2ccnc2)nc2cc[nH]c12` [Example 29, 2-(1H-imidazol-1-yl)-N-((1r,4r)-4-((2,2,2-trifluoroethyl)amino)cyclohexyl)-5H-pyrrolo[3,2-d]pyrimidine-4-carboxamide, reference compound], the concentration at 2 h was 1770 nM in data set [1] (male, C57BL/6, mouse, brain, read-out: total brain conc.); 224 nM in data set [1] (male, C57BL/6, mouse, brain, total corrected for unbound fraction in brain, read-out: free brain conc.); 11100 nM in data set [1] (male, C57BL/6, mouse, plasma, read-out: total plasma conc.); 1260 nM in data set [1] (male, C57BL/6, mouse, plasma, total corrected for unbound fraction in plasma, read-out: free plasma conc.). The Kpu,u (unbound brain/plasma partition coefficient) at 2 h in data set [1] (male, C57BL/6, mouse, brain/plasma, oral 10 mg/kg, read-out: Kpu,u (unbound partitioning coefficient, Cb,u/Cp,u)) came out at 0.18. The “brain exposure (in words)” value in data set [1] (oral 10 mg/kg, comment on Table 3, with lower Kpu,u values) was “much reduced brain exposure”.
